# Experimental data published in patent US20240238228A1, “COMPOSITIONS AND METHODS FOR TREATING ALLERGIES AND INFLAMMATORY CONDITIONS” (UNIVERSITY OF PITTSBURGH-OF THE COMMONWEALTH SYSTEM OF …, priority 2021, published 2024).
# Assays:
# Assay type in all cases: cell-based, murine
# PMCs [1] = assay: IgE+Ag-activated PMCs: cytokine release (ELISA); parameters: detectible levels of IL-10 / levels of IL-13: dose or concentration left out as unconfirmed
# Experimental: Mast cells were differentiated from murine bone marrow as has been described. In brief, marrow was expunged from the femurs and tibias of female mice. Cultures were maintained in complete MC/9 medium containing recombinant murine IL-3 (25 ng/mL, Peprotech) for 4-6 weeks prior to use. Peritoneal MCs (PMCs) were expanded from peritoneal washes with MC/9 medium supplemented with IL-3 (25 ng/mL) and SCF (Peprotech, 10 ng/mL) for 21 days. Purity of BMMCs and PMCs was confirmed to be greater than 95% (FIG. 8A). To initiate signaling via the FcεRI, MCs were loaded with IgE (1.0 μg/ml, clone SPE-7, Sigma) for a minimum of 1 h then crosslinked with dinitrophenyl-human serum albumin (DNP-HSA, 100 ng/mL or as indicated). NKA (either LifeTein (Summerset, NJ) or Phoenix Pharmaceuticals (Burlingham, CA)) stock solutions were prepared in tissue culture grade water (100 μM) and stored at −20° C. for a maximum of 30 days. Glyburide (Cayman Chemical) was prepared in DMSO then diluted in PBS. Calpain activity was detected from cell-free supernatants using the Calpain-Glo Protease Assay (Promega). Supernatants were incubated with substrate for 10 min prior to luminescent detection. In some experiments, glyburide or vehicle (0.1% DMSO) were added to cells 10 min prior to Ag. ELISA kits from eBioscience (IL-13), BioLegend, (TNF and IL-10) or RayBiotech (NKA) and used in accord with the manufacturer's recommendations.
# BMMCs = assay: Avidin / LAMP-1 surface staining of activated BMMCs; parameters: effect on LAMP-1^+ and avidin^+ BMMCs: dose or concentration left out as unconfirmed
# Experimental: (§1) MCs were collected and washed with PBS containing 0.5% BSA and 0.1% sodium azide. Non-specific binding was inhibited using FcBlock (PBS with 2.0% goat serum and 0.25 mg/mL anti-CD16/32 (clone 2.4G2, BD Biosciences). Surface staining was done with anti-CD117 eFluor450 (clone 2B8, ThermoFisher), anti-FcεRI FITC (clone MAR-1, ThermoFisher) and anti-ABCA1 Alexa Fluor 647 (clone 5A1-1422, BioRad). Cells were washed with Wash Buffer (PBS with 0.5% BSA and 0.1% sodium azide). To detect differences in granulated proteins at the cell surface, IgE-loaded MCs were activated with DNP-HSA with or without NKA in Tyrode's Buffer for 30 min, washed with Wash Buffer then stained with Avidin Alexa Fluor488 (Invitrogen, Av488, 0.8 μg/5×10^5 cells) and anti-LAMP-1 PE (clone eBio 1D48, ThermoFisher). Data were acquired on either a LSRII or a Fortessa (BD BioSciences). Analysis was performed with FlowJo v10.4 (BD Biosciences).
# PMCs [2] = assay: Avidin / LAMP-1 surface staining of activated PMCs; parameters: percentage of LAMP-1^+ and avidin^+ PMCs: dose or concentration left out as unconfirmed
# Experimental: as §1
# calpain = assay: Calpain activity in cell-free supernatants of activated BMMCs
# Experimental: Calpain activity was detected from cell-free supernatants using the Calpain-Glo Protease Assay (Promega). Supernatants were incubated with substrate for 10 min prior to luminescent detection. In some experiments, glyburide or vehicle (0.1% DMSO) were added to cells 10 min prior to Ag. ELISA kits from eBioscience (IL-13), BioLegend, (TNF and IL-10) or RayBiotech (NKA) and used in accord with the manufacturer's recommendations.
# IL-10 = IL-10 degradation assays on BMMC supernatants
# Experimental: To detect early IL-10 release, 4×10^6 cells were incubated in serum free RPMI for a minimum of three hours prior to IgE loading and activation with DNP-HSA (100 ng/mL). Supernatants were collected and IL-10 was detected in accord with manufacturer's recommendations using 1.0% BSA to block and a top standard of 250 pg/mL. The lower limit of detection was 7.8 pg/mL. To evaluate the role of relationship between calpain and IL-10, cell-free supernatants were collected 10 min after activation and incubated with Ac-calpastatin (Ac-Cal; 20 μg/mL, Cayman) or vehicle control. […] To directly test IL-10 proteolysis, MCs were activated for 45 min, cell free supernatants were collected and pulsed with recombinant IL-10 (Biolegend, 250 pg/mL).
# [3] = increasing concentrations of glyburide 10 min prior to activation, supernatants 30 min after activation
# [4] = control Mcpt5Cre^+×IL10^WT PMCs
Compound,"levels of TNF (PMCs [1]; glyburide 50 mM, 20-24 h in culture)","detectible levels of IL-10 (PMCs [1]; glyburide, 20-24 h in culture)","levels of IL-13 (PMCs [1]; glyburide, 20-24 h in culture)",effect on LAMP-1^+ and avidin^+ BMMCs (BMMCs; IgE-activated 30 minutes),percentage of LAMP-1^+ and avidin^+ PMCs (PMCs [2]; IgE-activated 30 minutes),calpain activity (calpain; [3]),IL-10 levels (IL-10; [3]),IL-13 release (PMCs [1]; [4]),TNF release (PMCs [1]; [4]),effects of NKA on IL-13 and TNF release (PMCs [1]; without PMC-derived IL-10 (Mcpt5Cre^+×IL10^fl/fl)),"avidin^+ granules and LAMP-1 on the cell surface (BMMCs; 30 min after activation, with or without NKA)","percentage of avidin^+ and LAMP-1V PMCs (PMCs [2]; 30 min after activation, compared to control)",extracellular calpain activity (calpain; IgE+Ag with or without NKA for 60 min),early IL-10 in supernatants (IL-10; 60 min after activation with NKA),degradation of early IL-10 / pulsed rIL-10 by released proteases (IL-10; cell-free supernatants pulsed with rIL-10 for 30 min)
"COc1ccc(Cl)cc1C(=O)NCCc1ccc(S(=O)(=O)NC(=O)NC2CCCCC2)cc1 [glyburide, reference compound]",decreased,increased,decreased,less robust effect,reduced the percentage,reduced,increasing,,,,,,,,
Neurokinin A [NKA],,,,,,,,inhibited,inhibited,reversed,equivalent amounts,reduced the percentage,significantly downregulated,significantly more IL-10,disrupted
